Reference: article PMC6199744, “Development of Chemical Proteomics for the Folateome and Analysis of the Kinetoplastid Folateome” (ACS Infectious Diseases, 2018)
Read-outs that look alike come from different tables or passages of the source.

How the values were obtained:
Format in all cases: binding
[1] = biological target: T1, HeLa cell extract proteins (Homo sapiens, UniProt Q9HAV4)
T1 construct: endogenous in cells; host or cells: HeLa cell extract
T1 sequence (Q9HAV4 1-1204): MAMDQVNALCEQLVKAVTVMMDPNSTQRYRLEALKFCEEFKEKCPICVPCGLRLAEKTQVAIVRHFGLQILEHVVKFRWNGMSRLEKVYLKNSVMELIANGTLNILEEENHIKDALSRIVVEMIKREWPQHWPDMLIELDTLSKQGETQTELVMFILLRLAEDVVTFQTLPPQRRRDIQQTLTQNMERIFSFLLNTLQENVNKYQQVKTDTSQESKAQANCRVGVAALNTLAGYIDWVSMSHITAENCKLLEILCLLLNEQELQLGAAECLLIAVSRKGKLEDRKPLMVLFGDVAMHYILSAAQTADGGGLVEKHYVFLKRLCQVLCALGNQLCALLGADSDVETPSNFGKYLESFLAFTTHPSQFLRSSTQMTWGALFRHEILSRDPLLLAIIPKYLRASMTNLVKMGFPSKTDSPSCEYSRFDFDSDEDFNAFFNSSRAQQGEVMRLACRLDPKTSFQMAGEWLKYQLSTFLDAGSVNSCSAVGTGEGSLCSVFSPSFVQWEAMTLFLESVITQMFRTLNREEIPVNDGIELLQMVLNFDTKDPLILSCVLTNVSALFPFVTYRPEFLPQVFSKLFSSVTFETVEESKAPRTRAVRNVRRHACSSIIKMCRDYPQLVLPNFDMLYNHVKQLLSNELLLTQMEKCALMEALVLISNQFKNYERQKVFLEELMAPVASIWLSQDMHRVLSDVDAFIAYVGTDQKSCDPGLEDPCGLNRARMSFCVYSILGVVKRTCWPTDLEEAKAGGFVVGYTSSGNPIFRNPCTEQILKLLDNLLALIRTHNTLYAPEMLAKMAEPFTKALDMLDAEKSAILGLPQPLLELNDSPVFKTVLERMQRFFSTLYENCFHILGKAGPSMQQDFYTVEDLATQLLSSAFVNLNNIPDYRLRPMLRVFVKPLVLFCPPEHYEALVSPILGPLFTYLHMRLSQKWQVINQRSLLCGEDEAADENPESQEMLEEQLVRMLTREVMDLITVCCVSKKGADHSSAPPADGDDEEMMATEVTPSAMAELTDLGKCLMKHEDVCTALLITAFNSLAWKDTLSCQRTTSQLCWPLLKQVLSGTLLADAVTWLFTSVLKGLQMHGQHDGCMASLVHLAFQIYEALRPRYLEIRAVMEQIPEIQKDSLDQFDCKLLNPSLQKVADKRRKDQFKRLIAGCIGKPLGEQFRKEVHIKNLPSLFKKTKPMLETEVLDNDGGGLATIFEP

[2] = biological target: T2, HeLa cell extract proteins (Homo sapiens, UniProt P24539)
T2 construct: endogenous in cells; host or cells: HeLa cell extract
T2 sequence (P24539 43-256): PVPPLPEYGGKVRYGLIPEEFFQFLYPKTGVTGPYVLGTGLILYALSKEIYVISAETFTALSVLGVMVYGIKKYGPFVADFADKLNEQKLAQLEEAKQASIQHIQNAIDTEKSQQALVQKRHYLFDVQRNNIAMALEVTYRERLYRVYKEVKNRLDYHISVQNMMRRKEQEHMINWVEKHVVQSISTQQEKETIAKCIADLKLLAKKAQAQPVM

[3] = biological target: T3, HeLa cell extract proteins (Homo sapiens, UniProt P30041)
T3 construct: endogenous in cells; host or cells: HeLa cell extract
T3 sequence (P30041 1-224): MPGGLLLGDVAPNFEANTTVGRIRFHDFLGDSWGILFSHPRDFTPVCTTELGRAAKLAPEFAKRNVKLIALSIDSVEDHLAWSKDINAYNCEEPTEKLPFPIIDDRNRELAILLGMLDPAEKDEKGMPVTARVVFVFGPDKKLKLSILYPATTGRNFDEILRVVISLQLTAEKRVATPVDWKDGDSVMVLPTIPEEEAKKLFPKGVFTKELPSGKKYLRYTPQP

[4] = biological target: T4, HeLa cell extract proteins (Homo sapiens, UniProt P50416)
T4 construct: endogenous in cells; host or cells: HeLa cell extract
T4 sequence (P50416 1-773): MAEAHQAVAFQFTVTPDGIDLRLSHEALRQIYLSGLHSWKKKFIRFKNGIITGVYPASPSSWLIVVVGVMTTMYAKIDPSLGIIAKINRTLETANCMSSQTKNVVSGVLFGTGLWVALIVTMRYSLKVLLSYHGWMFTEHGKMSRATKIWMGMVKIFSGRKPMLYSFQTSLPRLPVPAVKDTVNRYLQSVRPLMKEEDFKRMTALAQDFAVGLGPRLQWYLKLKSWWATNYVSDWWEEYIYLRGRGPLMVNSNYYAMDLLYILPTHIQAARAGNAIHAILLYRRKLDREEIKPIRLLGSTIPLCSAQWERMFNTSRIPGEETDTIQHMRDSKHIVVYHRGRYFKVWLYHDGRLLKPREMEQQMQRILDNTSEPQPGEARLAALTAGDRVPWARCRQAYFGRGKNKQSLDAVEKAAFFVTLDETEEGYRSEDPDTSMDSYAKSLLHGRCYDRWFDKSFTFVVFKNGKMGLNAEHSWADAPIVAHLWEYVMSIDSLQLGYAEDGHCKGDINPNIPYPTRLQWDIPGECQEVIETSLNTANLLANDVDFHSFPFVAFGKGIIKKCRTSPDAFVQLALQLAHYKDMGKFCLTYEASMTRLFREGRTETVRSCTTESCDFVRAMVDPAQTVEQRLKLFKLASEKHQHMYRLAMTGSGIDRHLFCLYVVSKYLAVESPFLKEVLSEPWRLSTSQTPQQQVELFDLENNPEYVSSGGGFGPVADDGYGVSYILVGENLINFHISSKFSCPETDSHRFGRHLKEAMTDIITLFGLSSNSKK

[5] = HeLa, protein PRDX6 (PEROXIREDOXIN-6.)

Compound	fold changes relative to vehicle control ([1]; protein XPO5, HeLa)	fold changes relative to vehicle control ([2]; HeLa, captured protein ATP5F1)	fold changes relative to vehicle control ([3]; HeLa, protein PRDX6)	fold changes relative to vehicle control ([4]; HeLa, protein CPT1A)	fold changes relative to vehicle control ([1]; HeLa, protein XPO5)	fold changes relative to vehicle control ([2]; HeLa, protein ATP5F1)	fold changes relative to vehicle control [3, 5] [fold]	fold changes relative to vehicle control ([4]; captured protein CPT1A, HeLa)	other results
Nc1nc2c(c(=O)[nH]1)N(C=O)C(CNc1ccc(C(=O)N[C@@H](CCC(=O)O)C(=O)O)cc1)CN2 (stereo partly shown) [LEU, leucovorin]	0.86	1.15	1.05	0.88					
Nc1nc2[nH]cc(CCc3ccc(C(=O)N[C@@H](CCC(=O)O)C(=O)O)cc3)c2c(=O)[nH]1 [PTX, pemetrexed]									fold changes relative to vehicle control [1]: 0.92; fold changes relative to vehicle control [2]: 1.13; fold changes relative to vehicle control [3]: 1.21; fold changes relative to vehicle control [4]: 0.84
CCCCCCOc1ccc(Cc2cnc(N)nc2N)cc1 [compound 1]					1	1.05	1.45	0.9	
CCCCCCOc1cccc(Cc2cnc(N)nc2N)c1 [compound 2]					1.18	0.85	2.27	1.04	
Nc1nc2cccc(-c3ccccc3)c2n1Cc1ccc(Cl)c(Cl)c1 [compound 3]					1.1	0.88	0.92	0.95	
NCCOCCOCC(=O)Nc1nc2ncc(CNc3ccc(C(=O)NC(CCC(=O)O)C(=O)O)cc3)nc2c(=O)[nH]1 (stereo not shown) [compound 6]	1.02	0.96	1.33	1.01					
NCCCNc1ccc(C(=O)NC(CCC(=O)O)C(=O)O)cc1 (stereo not shown) [compound 7]	0.98	1.05	1.01	0.99					
